The source of these data is patent publication US8822505B2, “Azetidine derivatives” (Hoffmann-La Roche Inc., priority 2012, dated 2014).

Molecules are shown by their SMILES.

The target in test [1] is human Cat S (Homo sapiens (Human), UniProt P25774). Description: Cathepsin enzyme inhibition assay (human Cat S). The settings on record: enzyme 1 nM, substrate Z-Val-Val-Arg-AMC 20 μM, pH 6.5. It is filed as biochemical. The method, then:
(§1) Cathepsin Enzyme Inhibition Assay
(§2) Enzyme activity is measured by observing the increase in fluorescence intensity caused by cleavage of a peptide substrate containing a fluorophore whose emission is quenched in the intact peptide.
(§3) Assay buffer: 100 mM potassium phosphate pH 6.5, EDTA-Na 5 mM, Triton X-100 0.001%, DTT 5 mM.
(§4) Enzymes (all at 1 nM): human and mouse Cathepsin S, Cat K, Cat B, Cat L.
(§5) Substrate (20 μM): Z-Val-Val-Arg-AMC, except for Cat K which uses Z-Leu-Arg-AMC (both from Bachem).
Enzyme is added to the substance dilutions in 96-well microtitre plates and the reaction is started with substrate. […] IC50 are calculated by standard methods.
Inhibition of human Cat S, mouse Cat S, human Cat K, human Cat B, human Cat L and mouse Cat L have been measured separately.

Test [2] addresses human Cat L (Homo sapiens (Human), UniProt P07711). Description: Cathepsin enzyme inhibition assay (human Cat L). The class given is biochemical. To be noted: enzyme 1 nM, substrate Z-Val-Val-Arg-AMC 20 μM, pH 6.5. As for the experimental part:
as §1, §2, §3, §4, §5
Excitation 360 nm, Emission 465 nm.
Enzyme is added to the substance dilutions in 96-well microtitre plates and the reaction is started with substrate. Fluorescence emission is measured over 20 minutes, during which time a linear increase is observed in the absence of inhibitor. IC50 are calculated by standard methods.
Inhibition of human Cat S, mouse Cat S, human Cat K, human Cat B, human Cat L and mouse Cat L have been measured separately. The results obtained for human Cat S and L for representative compounds of the invention are expressed in the following table in μM.

Chain of human Cat L (P07711 114-333): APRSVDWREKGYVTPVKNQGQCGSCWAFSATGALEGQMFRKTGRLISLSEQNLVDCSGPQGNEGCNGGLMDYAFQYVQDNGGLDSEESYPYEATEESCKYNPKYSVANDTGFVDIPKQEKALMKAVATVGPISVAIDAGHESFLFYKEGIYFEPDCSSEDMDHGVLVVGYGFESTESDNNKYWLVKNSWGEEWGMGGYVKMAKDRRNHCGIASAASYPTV
Chain of human Cat S (P25774 115-331): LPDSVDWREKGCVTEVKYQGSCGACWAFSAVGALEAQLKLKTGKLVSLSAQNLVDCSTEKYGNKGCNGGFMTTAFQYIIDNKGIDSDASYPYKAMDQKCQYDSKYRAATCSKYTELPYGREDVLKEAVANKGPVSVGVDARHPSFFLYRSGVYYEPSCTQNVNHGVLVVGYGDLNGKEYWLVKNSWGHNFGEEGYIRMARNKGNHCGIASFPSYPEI

For the compound `COc1ccc(S(=O)(=O)[C@@H]2C[C@@H](C(=O)NC3(C#N)CC3)N(C(=O)C3(c4ccc(Cl)cn4)CN(C(=O)OC(C)(C)C)C3)C2)c(Cl)c1` [Example 1, 3-[(2S,4R)-4-(2-Chloro-4-methoxy-benzenesulfonyl)-2-(1-cyano-cyclopropylcarbamoyl)-pyrrolidine-1-carbonyl]-3-(5-chloro-pyridin-2-yl)-azetidine-1-carboxylic acid tert-butyl ester], the IC50 in test [1] amounted to 3.22 nM; in test [2], 1070 nM.
Regarding `COc1ccc(S(=O)(=O)[C@@H]2C[C@@H](C(=O)NC3(C#N)CC3)N(C(=O)C3(c4ccc(Cl)cn4)CNC3)C2)c(Cl)c1` [Example 2, (2S,4R)-4-(2-Chloro-4-methoxy-benzenesulfonyl)-1-[3-(5-chloro-pyridin-2-yl)-azetidine-3-carbonyl]-pyrrolidine-2-carboxylic acid (1-cyano-cyclopropyl)-amide], the IC50 was found to be 1.49 nM in test [1] and 38.1 nM in test [2].
For `COc1ccc(S(=O)(=O)[C@@H]2C[C@@H](C(=O)NC3(C#N)CC3)N(C(=O)C3(c4ccc(Cl)cn4)CN(C)C3)C2)c(Cl)c1` [Example 3, (2S,4R)-4-(2-Chloro-4-methoxy-benzenesulfonyl)-1-[3-(5-chloro-pyridin-2-yl)-1-methyl-azetidine-3-carbonyl]-pyrrolidine-2-carboxylic acid (1-cyano-cyclopropyl)-amide], the IC50 is 1.2 nM in test [1] and 292 nM in test [2].
For `CC(C)(C)OC(=O)N1CC(C(=O)N2C[C@H](S(=O)(=O)c3ccc(OCC(F)(F)F)cc3Cl)C[C@H]2C(=O)NC2(C#N)CC2)(c2ccc(Cl)cn2)C1` [Example 4, 3-(5-Chloro-pyridin-2-yl)-3-[(2S,4R)-4-[2-chloro-4-(2,2,2-trifluoro-ethoxy)-benzenesulfonyl]-2-(1-cyano-cyclopropylcarbamoyl)-pyrrolidine-1-carbonyl]-azetidine-1-carboxylic acid tert-butyl ester] the same measures were 2.75 nM and 1240 nM.
Turning to `CC(C)(C)OC(=O)N1CC(C(=O)N2C[C@H](S(=O)(=O)c3ccc(OCC(F)(F)F)cc3Cl)C[C@H]2C(=O)NC2(C#N)CC2)(c2ccc(Br)cn2)C1` [Example 5, 3-(5-Bromo-pyridin-2-yl)-3-[(2S,4R)-4-[2-chloro-4-(2,2,2-trifluoro-ethoxy)-benzenesulfonyl]-2-(1-cyano-cyclopropylcarbamoyl)-pyrrolidine-1-carbonyl]-azetidine-1-carboxylic acid tert-butyl ester], the IC50 in test [1] amounted to 3.69 nM; in test [2], 753 nM.
In test [2], `N#CC1(NC(=O)[C@@H]2C[C@@H](S(=O)(=O)c3ccc(OCC(F)(F)F)cc3Cl)CN2C(=O)C2(c3ccc(Cl)cn3)CNC2)CC1` [Example 6, (2S,4R)-1-[3-(5-Chloro-pyridin-2-yl)-azetidine-3-carbonyl]-4-[2-chloro-4-(2,2,2-trifluoro-ethoxy)-benzenesulfonyl]-pyrrolidine-2-carboxylic acid (1-cyano-cyclopropyl)-amide] registered an IC50 of 89.8 nM.
`N#CC1(NC(=O)[C@@H]2C[C@@H](S(=O)(=O)c3ccc(OCC(F)(F)F)cc3Cl)CN2C(=O)C2(c3ccc(Br)cn3)CNC2)CC1` [Example 7, (2S,4R)-1-[3-(5-Bromo-pyridin-2-yl)-azetidine-3-carbonyl]-4-[2-chloro-4-(2,2,2-trifluoro-ethoxy)-benzenesulfonyl]-pyrrolidine-2-carboxylic acid (1-cyano-cyclopropyl)-amide]: the IC50 is 3.82 nM in test [1] and 73.5 nM in test [2].
Regarding `N#CC1(NC(=O)[C@@H]2C[C@@H](S(=O)(=O)c3ccc(OCC(F)(F)F)cc3Cl)CN2C(=O)C2(c3ccc(Cl)cn3)CN(CC(F)F)C2)CC1` [Example 8, (2S,4R)-1-[3-(5-Chloro-pyridin-2-yl)-1-(2,2-difluoro-ethyl)-azetidine-3-carbonyl]-4-[2-chloro-4-(2,2,2-trifluoro-ethoxy)-benzenesulfonyl]-pyrrolidine-2-carboxylic acid (1-cyano-cyclopropyl)-amide], the IC50 in test [1] was found to be 0.694 nM; in test [2], 141 nM.
`N#CC1(NC(=O)[C@@H]2C[C@@H](S(=O)(=O)c3ccc(OCC(F)(F)F)cc3Cl)CN2C(=O)C2(c3ccc(Br)cn3)CN(CC(F)F)C2)CC1` [Example 9, (2S,4R)-1-[3-(5-Bromo-pyridin-2-yl)-1-(2,2-difluoro-ethyl)-azetidine-3-carbonyl]-4-[2-chloro-4-(2,2,2-trifluoro-ethoxy)-benzenesulfonyl]-pyrrolidine-2-carboxylic acid (1-cyano-cyclopropyl)-amide]: the IC50 in test [1] is 0.779 nM; in test [2] it was 91.7 nM.
For `CC(C)(C)OC(=O)N1CC(C(=O)N2C[C@H](S(=O)(=O)c3ccccc3Cl)C[C@H]2C(=O)NC2(C#N)CC2)(c2ncc(Cl)cc2F)C1` [Example 10, 3-[(2S,4R)-4-(2-Chloro-benzenesulfonyl)-2-(1-cyano-cyclopropylcarbamoyl)-pyrrolidine-1-carbonyl]-3-(5-chloro-3-fluoro-pyridin-2-yl)-azetidine-1-carboxylic acid tert-butyl ester] the same measures were 1.26 nM and 194 nM.
For `CC(C)(C)OC(=O)N1CC(C(=O)N2C[C@H](S(=O)(=O)c3ccccc3Cl)C[C@H]2C(=O)NC2(C#N)CC2)(c2ncc(Br)cc2F)C1` [Example 11, tert-Butyl 3-(5-bromo-3-fluoropyridin-2-yl)-3-((2S,4R)-4-(2-chlorophenylsulfonyl)-2-(1-cyanocyclopropylcarbamoyl)pyrrolidine-1-carbonyl)azetidine-1-carboxylate] the same measures were 1.27 nM and 70.5 nM.
Regarding `CN1CC(C(=O)N2C[C@H](S(=O)(=O)c3ccccc3Cl)C[C@H]2C(=O)NC2(C#N)CC2)(c2ncc(Br)cc2F)C1` [Example 14, (2S,4R)-1-[3-(5-Bromo-3-fluoro-pyridin-2-yl)-1-methyl-azetidine-3-carbonyl]-4-(2-chloro-benzenesulfonyl)-pyrrolidine-2-carboxylic acid (1-cyano-cyclopropyl)-amide], in test [2], half-maximal inhibition (IC50) was put at 12.5 nM.
Regarding `C[C@H](Oc1ccc(S(=O)(=O)[C@@H]2C[C@@H](C(=O)NC3(C#N)CC3)N(C(=O)C3(c4ncc(Cl)cc4F)CCN3C(=O)OC(C)(C)C)C2)c(Cl)c1)C(F)(F)F` (stereo partly drawn) [Example 27, tert-butyl 2-(5-chloro-3-fluoropyridin-2-yl)-2-((2S,4R)-4-(2-chloro-4-((S)-1,1,1-trifluoropropan-2-yloxy)phenylsulfonyl)-2-(1-cyanocyclopropylcarbamoyl)pyrrolidine-1-carbonyl)azetidine-1-carboxylate], the IC50 in test [2] worked out at 528 nM.
Same read-out and setting: the result for `C[C@H](Oc1ccc(S(=O)(=O)[C@@H]2C[C@@H](C(=O)NC3(C#N)CC3)N(C(=O)C3(c4ncc(Cl)cc4F)CCN3C(=O)OC(C)(C)C)C2)c(Cl)c1)C(F)(F)F` (stereo partly drawn) [Example 28, tert-butyl 2-(5-chloro-3-fluoropyridin-2-yl)-2-((2S,4R)-4-(2-chloro-4-((S)-1,1,1-trifluoropropan-2-yloxy)phenylsulfonyl)-2-(1-cyanocyclopropylcarbamoyl)pyrrolidine-1-carbonyl)azetidine-1-carboxylate] reads 556 nM.
